# Data as given in patent publication US11607422B2, “Uttroside B and derivatives thereof as therapeutics for hepatocellular carcinoma” (Rajiv Gandhi Centre for Biotechnology, an Autonomous …, priority 2016, dated 2023).
# Key:
# [1] = system: A375; assay: MTT cell viability assay in A375 cells; type: cell-based; conditions: 72 h
# Protocol: FIG. 2A is a graph comparison of IC50 of Uttroside B in a panel of cancer cells of different origin. The cancer cell lines HeLa, A375, HepG2, MDA-MB-231, HL 60, A549 and HCT116 were treated with Uttroside B as indicated, incubated for 72 h and the cell viability was assessed by MTT assay. FIG. 2B is a graph showing dose dependent effect of Uttroside B in the liver cancer cell lines and in normal immortalized hepatocytes. The liver cancer cell lines HepG2, Hep3B, SKHEP-1, Huh-7 and normal hepatocytes (Chang liver), were treated with Uttroside B incubated for 72 h and the cell viability was assessed by MTT assay. FIG. 2C is a graph comparison of IC50 of Uttroside B with sorafenib. HepG2 cells were treated with Uttroside B as indicated, incubated for 72 h, and the cell viability was assessed by MTT assay. […] The clones developed were counted and plotted as a graph. Colony containing more than four cells was counted as one clone. […]
# MTT [3-(4,5-dimethylthiazole-2-yl)-2,5-diphenyltetrazolium bromide] assay is a standard colorimetric assay, suitable for analyzing proliferation, viability, and cytotoxicity. […] After overnight incubation, cells were treated with different concentrations of organic extracts (25-250 μg/ml) of S. nigrum and the isolated compound Uttroside B (250-1250 nM) for 72 h and cytotoxicity was measured. […]
# [2] = system: LC3 in HepG2 cells; assay: Autophagy flux (LC3I to LC3II conversion) with Bafilomycin; type: cell-based, human; conditions: Uttroside B 500 nM + Bafilomycin 10 nM, 24 h
# Protocol: Concentration dependent effect of BafilomycinAl on the endogenous conversion of LC3I to LC3II in HepG2 cells. Cells were treated with Bafilomycin Al at different concentration and the whole cell lysate was resolved on a 15% gel and immunoblotted against LC3 antibody. Uttroside B is an autophagy inducer in HepG2 cells as analysed by autophagy flux using Bafilomycin Al. […] The increase in LC3 II could not be considered as a fool proof of autophagic induction because a blockage in any step leading from autophagosome maturation to its fusion with lysosomes could cause its accumulation. So, the effect of Uttroside B in HepG2 cells were analyzed for autophagy flux, a more accurate read out of autophagy on co-treatment with Bafilomycin, an autophagy-lysosome inhibitor. Bafilomycin A, blocks autophagy by blocking the fusion of autophagosome with lysosome which cause the accumulation of autophagosome or LC3. First, the concentration of Bafilomycin Al required for saturating the blockage of autophagy-lysosome fusion was standardized. The efficacy of Bafilomycin Al, in terms of blocking autophagosome degradation in HepG2, was found peaked at 10 nM, beyond which no further accumulation of LC3 II was noted, which matched with the earlier reports.^32,37,38 […]
# [3] = system: HepG2 cells; assay: Autophagy flux assay using PtfLC3 (GFP-RFP-LC3) reporter protein; type: cell-based, human; conditions: 500 nM, 24 h, transfected HepG2
# From the text: The development of a new vector called ptf-LC3B leading to the expression of a double-tagged GFP-RFP-LC3B protein has helped in the study of autophagy flux and this recombinant protein allows to distinguish between autophagosomes (in yellow) and autophagolysosomes (in red).^33 The pGFP-mRFP-LC3B (ptf-LC3) vector was purchased from Addgene (21074). Briefly, plasmid present in the bacterial pellet was isolated according to manufacturer's instruction (GenElute™ Plasmid Miniprep Kit-Sigma-Aldrich). HepG2 cells were transfected transiently with tandem repeats of GFP-RFP tagged LC3 (ptfLC3) using the Lipofectamine LTX and Plus Reagent Kit (Invitrogen, USA) according to manufacturer's protocol. Briefly, PtfLC3 vector Opti-MEM transfection medium (Solution A) was mixed with Lipofectamine reagent dissolved in Opti-MEM transfection medium (Solution B) and incubated for 45 min at room temperature. […]
# Quantitative analysis of autophagy flux using tandem GFP-RFP LC3 reporter protein. […] FIG. 29 is a bar diagram showing the quantitative analysis of autophagy induced by Uttroside B in HepG2 cells. HepG2 cells were transfected transiently with plasmid encoding GFP-RFP-LC3 as described previously and the punctae observed were counted and plotted as a histogram. The next attempt was to verify and quantitate the autophagic flux induced by Uttroside B using a tandem GFP-RFP LC3 reporter protein. […]
structure (smiles),measurement,setting,value
C[C@H](CC[C@@]1(O)O[C@H]2C[C@H]3[C@@H]4CC[C@H]5C[C@@H](O[C@@H]6O[C@H](CO)[C@H](O[C@@H]7O[C@H](CO)[C@@H](O)[C@H](O[C@@H]8OC[C@@H](O)[C@H](O)[C@H]8O)[C@H]7O[C@@H]7O[C@H](CO)[C@@H](O)[C@H](O)[C@H]7O)[C@H](O)[C@H]6O)CC[C@]5(C)[C@H]4CC[C@]3(C)[C@H]2[C@@H]1C)CO[C@@H]1O[C@H](CO)[C@@H](O)[C@H](O)[C@H]1O [Uttroside B],IC50,[1],1600 nM
same,LC3II on co-treatment with Bafilomycin,[2],surplus accumulation of LC3II
same,GFP-RFP-LC3 puncta,[3],increase in amount of yellow puncta and red puncta
